Measurements: patent publication US20240368203A1, “DEGRADATION OF (EGFR) BY CONJUGATION OF EGFR INHIBITORS WITH E3 LIGASE LIGAND AND METHODS OF USE” (BeiGene, Ltd., priority 2022, published 2024)

Tests used:
[1] = molecular target: T1, EGFR-L858R/T790M/C797S (Homo sapiens, UniProt P00533, C797S/L858R/T790M); test: EGFR degradation HTRF assay in H1975-clone #25 cells; assay type: cell-based; conditions: 16 h treatment; for DC50: H1975-clone #25 (L858R/T790M/C797S) cells, IC50 (DC50), read-out: DC50(nM) H1975 # 25-LTC; for Dmax: NCI-H1975, H1975-clone #25 (L858R/T790M/C797S) cells, maximum percentage of inhibition (degradation), read-out: Dmax (%) H1975 # 25-LTC
T1 construct: expressed in transfected cells; host or cells: H1975-clone #25 (lentiviral over-expression, endogenous EGFR knocked out)
Method: (§1) H1975-clone #28(Del19/T790M/C797S) and H1975-clone #25(L858R/T790M/C797S). EGFR-Del19/T790M/C797S and EGFR-L858R/T790M/C797S were stably expressed in H1975 cell lines by lentivirus-mediated over-expression, respectively. The EGFR over-expressed cells then underwent knockout, in which the EGFR targeting sgRNA was designed to only target the endogenous EGFR copies and preserve the exogenous EGFR copies. Followed by knockout, the edited H1975 cells were seeded in 96 well plates at the concentration of […], cultured for about 2 weeks to allow single clones formation. The formed clones were screened by DNA sequencing and whole exon sequencing analysis for the desired edition.
(§2) H1975-clone #28, and H1975-clone #25 were finally confirmed as homozygous Del19/T790M/C797S EGFR, and L858R/T790M/C797S EGFR clones, respectively.
(§3) H1975-#25 and H1975-#28 cells are treated with compounds diluted in 0.2% DMSO cell culture medium on day 2, incubate for 16 h, 37° C., 5% CO2. the final concentration of compounds in all assay is start with 10 uM, 5-fold dilution, total 8 doses were included.
(§4) After 16 h treatment, add HTRF lysis buffer to each well; seal the plate and incubate 1 hour at room temperature on a plate shaker; Once the cells are lysed, 16 μL of cell lysate are transferred to a PE 384-well HTRF detection plate; 4 μL of pre-mixed HTRF antibodies are added to each well; Cover the plate with a plate sealer, spin 1000 rpm for 1 min, Incubate overnight at room temperature; Read on BMG PheraStar with HTRF protocol (337 nm-665 nm-620 nm).
(§5) The inhibition (degradation) percentage of the compound was calculated by the following equation:
(§6) Inhibition percentage of Compound=100−100×(Signal−low control)/(High control−low control),
(§7) The IC50 (DC50) value of a compound can be obtained by fitting the following equation
(§8) Wherein, X and Y are known values, and IC50, Hillslope, Top and Bottom are the parameters obtained by fitting with software. Y is the inhibition percentage (calculated from the equation), X is the concentration of the compound; IC50 is the concentration of the compound when the 50% inhibition is reached. The smaller the IC50 value is, the stronger the inhibitory ability of the compound is. Vice versa, the higher the IC50 value is, the weaker the ability the inhibitory ability of the compound is; Hillslope represents the slope of the fitted curve, generally around 1 *; Bottom represents the minimum value of the curve obtained by data fitting, which is generally 0%±20%; Top represents the maximum value of the curve obtained by data fitting, which is generally 100%±20%. The experimental data were fitted by calculating and analyzing with Dotmatics data analysis software.

[2] = tested on: EGFR-Del19/T790M/C797S; test: EGFR degradation HTRF assay in H1975-clone #28 cells; assay type: cell-based; conditions: H1975-clone #28 (Del19/T790M/C797S) cells, 16 h treatment; for DC50: IC50 (DC50), read-out: DC50(nM) H1975 # 28 DTC; for Dmax (%) H1975 # 28 DTC: maximum percentage of inhibition (degradation)
Method: as §1, §2, §3, §4, §5, §6, §7, §8

T1 sequence (P00533 25-1210 T790M/C797S/L858R): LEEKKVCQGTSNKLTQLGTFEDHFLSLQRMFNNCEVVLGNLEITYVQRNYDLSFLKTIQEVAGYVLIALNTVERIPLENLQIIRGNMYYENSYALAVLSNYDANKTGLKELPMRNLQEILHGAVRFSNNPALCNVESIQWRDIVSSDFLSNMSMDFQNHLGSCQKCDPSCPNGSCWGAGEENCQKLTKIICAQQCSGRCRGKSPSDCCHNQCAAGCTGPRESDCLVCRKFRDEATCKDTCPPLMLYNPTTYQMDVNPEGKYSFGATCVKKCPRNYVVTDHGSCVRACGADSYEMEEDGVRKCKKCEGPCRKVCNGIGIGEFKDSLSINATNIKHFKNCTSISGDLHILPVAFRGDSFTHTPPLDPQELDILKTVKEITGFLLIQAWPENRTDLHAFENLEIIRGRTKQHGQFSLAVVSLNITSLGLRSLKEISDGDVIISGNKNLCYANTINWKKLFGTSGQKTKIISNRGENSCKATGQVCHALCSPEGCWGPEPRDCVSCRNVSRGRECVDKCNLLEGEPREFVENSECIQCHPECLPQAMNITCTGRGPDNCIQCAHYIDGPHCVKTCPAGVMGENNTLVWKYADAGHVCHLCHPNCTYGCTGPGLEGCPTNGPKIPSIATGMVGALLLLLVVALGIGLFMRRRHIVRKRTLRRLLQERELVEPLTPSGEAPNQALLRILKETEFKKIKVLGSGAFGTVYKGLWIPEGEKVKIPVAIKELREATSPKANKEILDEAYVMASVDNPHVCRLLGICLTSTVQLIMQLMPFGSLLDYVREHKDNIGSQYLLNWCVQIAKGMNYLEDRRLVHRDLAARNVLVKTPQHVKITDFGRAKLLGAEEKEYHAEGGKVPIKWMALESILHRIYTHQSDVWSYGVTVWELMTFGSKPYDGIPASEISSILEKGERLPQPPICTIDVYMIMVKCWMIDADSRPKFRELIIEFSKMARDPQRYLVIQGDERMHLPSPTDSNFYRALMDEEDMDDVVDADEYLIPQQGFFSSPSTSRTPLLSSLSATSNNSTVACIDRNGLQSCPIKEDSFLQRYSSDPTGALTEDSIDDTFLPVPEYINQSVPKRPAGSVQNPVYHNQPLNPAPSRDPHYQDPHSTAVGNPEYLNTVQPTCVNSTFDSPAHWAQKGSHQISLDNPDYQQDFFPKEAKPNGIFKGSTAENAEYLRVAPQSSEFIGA

Compound | DC50 [1] | Dmax [1] | DC50 [2] | Dmax (%) H1975 # 28 DTC [2]
CCc1ncc2c(P(C)(C)=O)c(Nc3nc(Nc4cc(CC)c(N5CCC(N6CC7(CN(c8cccc9c8n(C)c(=O)n9C8CCC(=O)NC8=O)C7)C6)CC5)cc4OC)ncc3Br)ccc2n1 (centres unmarked) [Example 25, 3-(4-(6-(1-(4-((5-bromo-4-((5-(dimethylphosphoryl)-2-ethylquinazolin-6-yl)amino)pyrimidin-2-yl)amino)-2-ethyl-5-methoxyphenyl)piperidin-4-yl)-2,6-diazaspiro[3.3]heptan-2-yl)-3-methyl-2-oxo-2,3-dihydro-1H-benzo[d]imidazol-1-yl)piperidine-2,6-dione] | 0.5 nM | 82% | 0.8 nM | 74%
CCc1cc(Nc2ncc(Br)c(Nc3ccc4nc(C)c(F)cc4c3P(C)(C)=O)n2)c(OC)cc1N1CCC(N2CC3(CN(c4cccc5c4n(C)c(=O)n5C4CCC(=O)NC4=O)C3)C2)CC1 (centres unmarked) [Example 26, 3-(4-(6-(1-(4-((5-bromo-4-((5-(dimethylphosphoryl)-3-fluoro-2-methylquinolin-6-yl)amino)pyrimidin-2-yl)amino)-2-ethyl-5-methoxyphenyl)piperidin-4-yl)-2,6-diazaspiro[3.3]heptan-2-yl)-3-methyl-2-oxo-2,3-dihydro-1H-benzo[d]imidazol-1-yl)piperidine-2,6-dione] | 0.7 nM | 80% | 1.4 nM | 75%
CCc1cc(Nc2ncc(Br)c(Nc3ccc4nc(C)c(F)cc4c3P(C)(C)=O)n2)c(OC)cc1N1CCC2(CCN(CCCc3cccc4c3n(C)c(=O)n4C3CCC(=O)NC3=O)CC2)CC1 (centres unmarked) [Example 28, 3-(4-(3-(9-(4-((5-bromo-4-((5-(dimethylphosphoryl)-3-fluoro-2-methylquinolin-6-yl)amino)pyrimidin-2-yl)amino)-2-ethyl-5-methoxyphenyl)-3,9-diazaspiro[5.5]undecan-3-yl)propyl)-3-methyl-2-oxo-2,3-dihydro-1H-benzo[d]imidazol-1-yl)piperidine-2,6-dione] | 2.2 nM | 87% | 1 nM | 80%
CCc1cc(Nc2ncc(Br)c(Nc3ccc4nc(C)c(F)cc4c3P(C)(C)=O)n2)c(OC)cc1N1CCC2(CCN(CC3CN(c4cccc5c4CN(C4CCC(=O)NC4=O)C5=O)C3)CC2)CC1 (centres unmarked) [Example 33, 3-(4-(3-((9-(4-((5-bromo-4-((5-(dimethylphosphoryl)-3-fluoro-2-methylquinolin-6-yl)amino)pyrimidin-2-yl)amino)-2-ethyl-5-methoxyphenyl)-3,9-diazaspiro[5.5]undecan-3-yl)methyl)azetidin-1-yl)-1-oxoisoindolin-2-yl)piperidine-2,6-dione] | 1.5 nM | 91% | 2.1 nM | 82%
CCc1cc(Nc2ncc(Br)c(Nc3ccc4nc(C)c(F)cc4c3P(C)(C)=O)n2)c(OC)cc1N1CCC2(CCN(CCN(C)c3cccc4c3CN(C3CCC(=O)NC3=O)C4=O)CC2)CC1 (centres unmarked) [Example 34, 3-(4-((2-(9-(4-((5-bromo-4-((5-(dimethylphosphoryl)-3-fluoro-2-methylquinolin-6-yl)amino)pyrimidin-2-yl)amino)-2-ethyl-5-methoxyphenyl)-3,9-diazaspiro[5.5]undecan-3-yl)ethyl)(methyl)amino)-1-oxoisoindolin-2-yl)piperidine-2,6-dione] | 2.8 nM | 89% | 2.5 nM | 80%
CCc1ncc2c(P(C)(C)=O)c(Nc3nc(Nc4cc(CC)c(N5CCC(N6CCN(CC7CCN(c8ccc9c(c8)CN(C8CCC(=O)NC8=O)C9=O)CC7)CC6)CC5)cc4OC)ncc3Br)ccc2n1 (centres unmarked) [Example 35, 3-(5-(4-((4-(1-(4-((5-bromo-4-((5-(dimethylphosphoryl)-2-ethylquinazolin-6-yl)amino)pyrimidin-2-yl)amino)-2-ethyl-5-methoxyphenyl)piperidin-4-yl)piperazin-1-yl)methyl)piperidin-1-yl)-1-oxoisoindolin-2-yl)piperidine-2,6-dione] | 1.3 nM | 83% | 1.2 nM | 79%
COc1cc(N2CCC3(CC2)CCN(C2CCN(c4cc(F)c([C@H]5CCC(=O)NC5=O)c(F)c4)CC2)CC3)c(C)cc1Nc1ncc(Br)c(Nc2ccc3nc(C)c(F)cc3c2P(C)(C)=O)n1 [Example 37, (R)-3-(4-(4-(9-(4-((5-bromo-4-((5-(dimethylphosphoryl)-3-fluoro-2-methylquinolin-6-yl)amino)pyrimidin-2-yl)amino)-5-methoxy-2-methylphenyl)-3,9-diazaspiro[5.5]undecan-3-yl)piperidin-1-yl)-2,6-difluorophenyl)piperidine-2,6-dione] | 1.4 nM | 95% | 3.3 nM | 90%
CCc1cc(Nc2ncc(Br)c(Nc3ccc4nc(C)c(F)cc4c3P(C)(C)=O)n2)c(OC)cc1N1CCC2(CC1)CCN(C1CN(c3cc(F)c([C@H]4CCC(=O)NC4=O)c(F)c3)C1)CC2 [Example 38, (R)-3-(4-(3-(9-(4-((5-bromo-4-((5-(dimethylphosphoryl)-3-fluoro-2-methylquinolin-6-yl)amino)pyrimidin-2-yl)amino)-2-ethyl-5-methoxyphenyl)-3,9-diazaspiro[5.5]undecan-3-yl)azetidin-1-yl)-2,6-difluorophenyl)piperidine-2,6-dione] | 8.6 nM | 89% | 7.4 nM | 85%

Now from value to compound, other results behind:

DC50 [1] | Dmax [1] | DC50 [2] | Compound | Dmax (%) H1975 # 28 DTC [2]
0.6 nM | 86% | 0.8 nM | CCc1ncc2c(P(C)(C)=O)c(Nc3nc(Nc4cc(CC)c(N5CCC(N6CC7(CCN(c8cccc9c8n(C)c(=O)n9C8CCC(=O)NC8=O)CC7)C6)CC5)cc4OC)ncc3Br)ccc2n1 (centres unmarked) [Example 31, 3-(4-(2-(1-(4-((5-bromo-4-((5-(dimethylphosphoryl)-2-ethylquinazolin-6-yl)amino)pyrimidin-2-yl)amino)-2-ethyl-5-methoxyphenyl)piperidin-4-yl)-2,7-diazaspiro[3.5]nonan-7-yl)-3-methyl-2-oxo-2,3-dihydro-1H-benzol[d]imidazol-1-yl)piperidine-2,6-dione] | 80%
1.3 nM | 81% | 1.4 nM | CCOc1cc(N2CCC(N3CC4(CCN(c5cccc6c5n(C)c(=O)n6C5CCC(=O)NC5=O)CC4)C3)CC2)c(CC)cc1Nc1ncc(Cl)c(Nc2ccc3nc(C)c(F)cc3c2P(C)(C)=O)n1 (centres unmarked) [Example 32, 3-(4-(2-(1-(4-((5-chloro-4-((5-(dimethylphosphoryl)-3-fluoro-2-methylquinolin-6-yl)amino)pyrimidin-2-yl)amino)-5-ethoxy-2-ethylphenyl)piperidin-4-yl)-2,7-diazaspiro[3.5]nonan-7-yl)-3-methyl-2-oxo-2,3-dihydro-1H-benzol[d]imidazol-1-yl)piperidine-2,6-dione] | 77%
4.5 nM | 94% | 3.1 nM | COc1cc(N2CCC3(CC2)CCN(C2CCN(c4cc(F)c([C@H]5CCC(=O)NC5=O)c(F)c4)CC2)CC3)c(C)cc1Nc1ncc(Br)c(Nc2ccc3nccnc3c2P(C)(C)=O)n1 [Example 36, (R)-3-(4-(4-(9-(4-((5-bromo-4-((5-(dimethylphosphoryl)quinoxalin-6-yl)amino)pyrimidin-2-yl)amino)-5-methoxy-2-methylphenyl)-3,9-diazaspiro [5.5]undecan-3-yl)piperidin-1-yl)-2,6-difluorophenyl)piperidine-2,6-dione] | 93%
